Experimental data from patent US6506708B1, “3-(heterocyclyl)-benzoylpyrazole-derivatives” (BASF Aktiengesellschaft, priority 1998, dated 2003).

How the values were obtained:
[1] = tested on: barnyard grass; test: greenhouse post-emergence herbicidal test; format: in vivo, Echinochloa crus-galli; details: application rates of 0.25 or 0.125 kg/ha
Text: (§1) The seeds of the test plants were sown separately for each species. For the post-emergence treatment, the test plants were first grown to a height of 3 to 15 cm, depending on the plant habit, and only then treated with the active compounds which had been suspended or emulsified in water. The test plants were for this purpose either sown directly and grown in the same containers, or they were first grown separately as seedlings and transplanted into the test containers a few days prior to treatment. The application rate for the post-emergence treatment was 0.25, 0.125 or 0.0625 kg of a.s. (active substance)/ha. Depending on the species, the plants were kept at 10-25° C. or […] The test period extended over 2 to 4 weeks. During this time, the plants were tended, and their response to the individual treatments was evaluated. The evaluation was carried out using a scale from 0 to 100. 100 means no emergence of the plants, or complete destruction of at least the aerial parts and 0 means no damage, or normal course of growth. The plants used in the greenhouse experiments were of the following species: [table]

[2] = tested on: green foxtail; test: greenhouse post-emergence herbicidal test; format: in vivo, Setaria eiridis; details: application rates of 0.25 or 0.125 kg/ha
Text: as §1

[3] = tested on: lamb's-quarters; test: greenhouse post-emergence herbicidal test; format: in vivo, Chenopodium album; details: application rates of 0.25 or 0.125 kg/ha
Text: as §1

[4] = tested on: lady's-thumb; test: greenhouse post-emergence herbicidal test; format: in vivo, Polygonum persicaria; details: application rates of 0.25 or 0.125 kg/ha
Text: as §1

[5] = tested on: black nightshade; test: greenhouse post-emergence herbicidal test; format: in vivo, Solanum nigrum; details: application rates of 0.25 or 0.125 kg/ha
Text: as §1

Compound	melting point	further results
CC(C)Oc1c(C(=O)c2ccc(S(C)(=O)=O)c(C3=NOCC3)c2Cl)cnn1C(C)C(C)C (stereo not drawn) [Compound 2.10]	125 to 130 °C	–
CCOc1c(C(=O)c2ccc(S(C)(=O)=O)c(C3=NOCC3)c2Cl)cnn1C(C)C [Compound 2.4]	150 to 155 °C	–
CC(C)n1ncc(C(=O)c2ccc(S(C)(=O)=O)c(C3=NOCC3)c2Cl)c1O [Compound 2.2]	210 to 215 °C	post-emergence herbicidal action against barnyard grass [1]: very good post-emergence action; post-emergence herbicidal action against green foxtail [2]: very good post-emergence action; post-emergence herbicidal action against lamb's-quarters [3]: very good post-emergence action; post-emergence herbicidal action against lady's-thumb [4]: very good post-emergence action; post-emergence herbicidal action against black nightshade [5]: very good post-emergence action
COc1c(C(=O)c2ccc(S(C)(=O)=O)c(C3=NOCC3)c2Cl)cnn1C(C)C [Compound 2.5]	185 to 190 °C	–
CC(C)Oc1c(C(=O)c2ccc(S(C)(=O)=O)c(C3=NOCC3)c2Cl)cnn1C(C)C [Compound 2.3]	175 to 180 °C	–
CC(C)C(C(C)C)n1ncc(C(=O)c2ccc(S(C)(=O)=O)c(C3=NOCC3)c2Cl)c1O [Compound 2.15]	200 to 205 °C	–
COc1c(C(=O)c2ccc(S(C)(=O)=O)c(C3=NOCC3)c2Cl)cnn1C(C(C)C)C(C)C [Compound 2.16]	65 to 70 °C	–
CC(C)C(C)n1ncc(C(=O)c2ccc(S(C)(=O)=O)c(C3=NOCC3)c2Cl)c1O (stereo not drawn) [Compound 2.9]	150 to 155 °C	–
CC(C)(C)n1ncc(C(=O)c2ccc(S(C)(=O)=O)c(C3=NOCC3)c2Cl)c1O [Compound 2.1, 4-[2-Chloro-3-(4,5-dihydroisoxazol-3-yl)-4-methylsulfonylbenzoyl]-5-hydroxy-1-(1,1-dimethyl-1-ethyl)-1H-pyrazole]	198 to 200 °C	–
COc1c(C(=O)c2cnn(C(C)C)c2O)ccc(S(C)(=O)=O)c1C1=NOCC1 [Compound 2.13]	154 to 156 °C	–
